Measured values reported in PMC10074544 (Cell chemical biology, 2023).
Where a name gives a salt, the structure may show the parent alone. Residues, ends and D or L forms follow the SMILES beside them. *: point of attachment. Cbz = O=C(OCc1ccccc1)*

How the values were obtained:
CDK9 [1] = biological target: T1, CDK9 (Homo sapiens, UniProt P50750); experiment: CDK9 degradation in MOLT4 cells; format: cell-based; settings: for effect of pre-treatment on CDK9 degradation by 955: pre-treatment before 955
PC3 = experiment: Viability; format: cell-based, human
22RV1 = experiment: Viability; format: cell-based, human
DU145 = experiment: Viability; format: cell-based, human
LNCaP = experiment: Viability; format: cell-based, human
EML4-ALK = EML4-ALK (Homo sapiens, UniProt Q9HC35+Q9UM73); experiment: EML4-ALK degradation in NCI-H2228 cells; format: cell-based; settings: for effect of pre-treatment on EML4-ALK degradation induced by 819: NCI-H2228 cells
H1299 lung cancer cells = experiment: Cell killing in KEAP1 siRNA- vs control siRNA-treated H1299 cells; format: cell-based, human; settings: 24 h treatment
[2] = biological target: CDK9:955:KEAP1 ternary complex (Homo sapiens, UniProt P50750+Q14145); experiment: NanoBRET ternary complex formation assay in live 293T cells; format: cell-based; settings: HiBit-CDK9 and Halo-KEAP1, 6 h
[3] = system: LNCaP prostate cancer cells; experiment: Cell killing in KEAP1 siRNA- vs control siRNA-treated LNCaP cells; format: cell-based, human; settings: 24 h treatment
CDK10 [4] = biological target: T2, CDK10 (Homo sapiens, UniProt Q15131); experiment: CDK10 degradation in MOLT4 cells; format: cell-based
CDK9 [5] = settings: cited from earlier work
V5-TurboID-CDK9 = V5-TurboID-CDK9 (Homo sapiens, UniProt P50750+Q14145); experiment: TurboID-bait assay in 293T cells; format: cell-based
CDK9 [6] = biological target: T1, CDK9; experiment: CDK9 degradation in LNCaP cells; format: cell-based
[7] = system: CDK9-dependent transcription; experiment: RNA-seq in MOLT4 cells; format: cell-based, human; settings: 6 h treatment, compared with SNS-032
CDK9 [8] = biological target: T1, CDK9; experiment: CDK9 degradation in KEAP1 knockout / rescued H1299 cells; format: cell-based
CDK9 [9] = biological target: T1, CDK9; experiment: TMT-based global proteomics in MOLT4 cells, CDK9; format: cell-based
c-Myc and MCL-1 [10] = experiment: c-Myc and MCL-1 expression in MOLT4 cells; format: cell-based, human; settings: mRNA and protein
c-Myc and MCL-1 [11] = experiment: c-Myc and MCL-1 expression in LNCaP cells; format: cell-based, human
MOLT4 cells = experiment: PARP cleavage; format: cell-based, human; settings: compared with SNS-032
purified KEAP1 protein = purified KEAP1 protein (Homo sapiens, UniProt Q14145); experiment: Gel-based competitive ABPP assay with IA-alkyne; format: binding; settings: serially diluted compound, purified His-KEAP1
CDK10 [12] = biological target: T2, CDK10; settings: MOLT4 lysates; cited from earlier work
CDK9 [13] = settings: read-out: IC50 CDK9; cited from earlier work
[14] = PL or SNS-032 alone or their combination (Figure 1E)
[15] = 955 versus 336 with reduced Michael acceptors (Figure 2H)

T2 sequence (Q15131 whole entry): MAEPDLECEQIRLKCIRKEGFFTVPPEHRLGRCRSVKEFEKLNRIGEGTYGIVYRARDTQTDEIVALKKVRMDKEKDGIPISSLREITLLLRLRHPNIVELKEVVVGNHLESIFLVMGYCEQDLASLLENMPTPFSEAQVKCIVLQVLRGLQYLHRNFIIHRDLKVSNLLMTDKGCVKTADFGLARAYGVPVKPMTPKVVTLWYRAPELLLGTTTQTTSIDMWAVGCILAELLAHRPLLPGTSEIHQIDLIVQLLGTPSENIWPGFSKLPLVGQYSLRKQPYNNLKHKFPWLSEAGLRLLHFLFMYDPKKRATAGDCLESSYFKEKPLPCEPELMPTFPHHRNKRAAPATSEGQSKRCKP
T1 sequence (P50750 whole entry): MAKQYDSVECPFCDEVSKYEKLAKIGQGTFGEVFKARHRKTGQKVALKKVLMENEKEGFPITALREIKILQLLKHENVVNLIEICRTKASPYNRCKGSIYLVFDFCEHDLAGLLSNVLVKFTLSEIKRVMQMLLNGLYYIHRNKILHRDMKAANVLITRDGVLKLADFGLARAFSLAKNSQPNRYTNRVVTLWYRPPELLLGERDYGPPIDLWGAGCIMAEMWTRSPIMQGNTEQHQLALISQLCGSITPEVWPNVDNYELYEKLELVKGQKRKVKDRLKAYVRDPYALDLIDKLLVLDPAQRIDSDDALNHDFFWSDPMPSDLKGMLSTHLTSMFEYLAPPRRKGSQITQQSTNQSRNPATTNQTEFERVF
Chain of V5-TurboID-CDK9 (P50750 whole entry): as above
Chain of V5-TurboID-CDK9 (Q14145 whole entry): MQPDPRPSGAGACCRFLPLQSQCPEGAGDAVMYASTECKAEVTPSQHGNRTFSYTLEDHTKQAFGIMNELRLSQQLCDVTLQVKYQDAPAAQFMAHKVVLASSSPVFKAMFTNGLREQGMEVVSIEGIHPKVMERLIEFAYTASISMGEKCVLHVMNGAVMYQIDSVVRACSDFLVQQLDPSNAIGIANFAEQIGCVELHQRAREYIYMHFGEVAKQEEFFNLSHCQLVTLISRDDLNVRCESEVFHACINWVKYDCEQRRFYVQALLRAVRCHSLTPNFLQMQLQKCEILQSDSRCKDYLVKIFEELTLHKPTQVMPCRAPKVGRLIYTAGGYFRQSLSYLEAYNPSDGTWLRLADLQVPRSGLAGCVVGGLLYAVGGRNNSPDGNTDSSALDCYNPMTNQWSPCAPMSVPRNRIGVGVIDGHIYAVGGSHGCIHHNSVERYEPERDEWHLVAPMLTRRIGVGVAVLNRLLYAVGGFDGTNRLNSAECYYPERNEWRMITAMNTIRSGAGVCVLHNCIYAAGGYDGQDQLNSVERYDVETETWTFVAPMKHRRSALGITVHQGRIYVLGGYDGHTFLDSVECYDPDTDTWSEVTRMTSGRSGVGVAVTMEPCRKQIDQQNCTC
Chain of V5-TurboID-CDK9 (O60563 whole entry partner): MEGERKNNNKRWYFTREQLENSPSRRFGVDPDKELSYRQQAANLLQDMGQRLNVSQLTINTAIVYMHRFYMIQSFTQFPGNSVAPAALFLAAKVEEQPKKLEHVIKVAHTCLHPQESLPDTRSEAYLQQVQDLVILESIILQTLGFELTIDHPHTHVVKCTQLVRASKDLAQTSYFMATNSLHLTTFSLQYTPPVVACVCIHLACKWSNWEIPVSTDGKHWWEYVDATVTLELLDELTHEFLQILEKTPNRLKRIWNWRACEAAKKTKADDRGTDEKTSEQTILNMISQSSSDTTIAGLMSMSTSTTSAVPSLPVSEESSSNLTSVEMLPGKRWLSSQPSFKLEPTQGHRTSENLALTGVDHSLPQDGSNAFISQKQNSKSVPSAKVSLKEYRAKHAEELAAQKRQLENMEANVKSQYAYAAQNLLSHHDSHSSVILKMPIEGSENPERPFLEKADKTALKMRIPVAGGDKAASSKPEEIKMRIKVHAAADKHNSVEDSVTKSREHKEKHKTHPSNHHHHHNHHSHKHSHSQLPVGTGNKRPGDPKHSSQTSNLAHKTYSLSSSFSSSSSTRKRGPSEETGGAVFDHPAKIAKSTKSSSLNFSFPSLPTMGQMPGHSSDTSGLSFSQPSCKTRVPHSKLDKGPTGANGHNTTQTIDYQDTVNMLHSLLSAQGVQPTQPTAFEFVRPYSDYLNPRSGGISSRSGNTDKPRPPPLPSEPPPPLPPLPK
Chain of CDK9:955:KEAP1 ternary complex (P50750 whole entry): as the sequence (P50750 whole entry) above
Chain of CDK9:955:KEAP1 ternary complex (Q14145 whole entry): as the sequence (Q14145 whole entry) above
Chain of CDK9:955:KEAP1 ternary complex (O60563 whole entry partner): as the sequence (O60563 whole entry partner) above
Chain of purified KEAP1 protein (Q14145 whole entry): as the sequence (Q14145 whole entry) above

COc1cc(/C=C/C(=O)N2CCC=CC2=O)cc(OC)c1OC [PL, (E)-1-(3-(3,4,5-trimethoxyphenyl)acryloyl)-5,6-dihydropyridin-2(1H)-one]
CDK9 degradation (CDK9 [1]; [14]): none of these treatments degraded CDK9 | effect of pre-treatment on CDK9 degradation by 955 (CDK9 [1]): blocks | anti-proliferative effect (PC3; PC3, within 3 μM): no anti-proliferative effect | anti-proliferative effect (22RV1; 22RV1, within 3 μM): no anti-proliferative effect | anti-proliferative effect (DU145; DU145, within 3 μM): no anti-proliferative effect | anti-proliferative effect (LNCaP; within 3 μM): no anti-proliferative effect

COc1cc(/C=C/C(=O)N2CCC=CC2=O)cc(OC)c1OCC(=O)N1CCC(c2cc(OC(C)C)c(Nc3ncc(Cl)c(Nc4ccccc4S(=O)(=O)C(C)C)n3)cc2C)CC1 [compound 819, (E)-1-(3-(4-(2-(4-(4-((5-chloro-4-((2-(isopropylsulfonyl)phenyl)amino)pyrimidin-2-yl)amino)-5-isopropoxy-2-methylphenyl)piperidin-1-yl)-2-oxoethoxy)-3,5-dimethoxyphenyl)acryloyl)-5,6-dihydropyridin-2(1H)-one]
EML4-ALK degradation (EML4-ALK; NCI-H2228 NSCLC cells): can degrade EML4-ALK in a concentration-dependent manner

NS(=O)(=O)OC[C@H]1C[C@@H](Nc2ccnc3cc(-c4cccc(SC(F)(F)F)c4)nn23)[C@H](O)[C@@H]1O [TAK-243]
effect of pre-treatment on CDK9 degradation by 955 (CDK9 [1]): blocks

COc1cc(CCC(=O)N2CCCCC2=O)cc(OC)c1OCCN1CCN(C(=O)CN2CCC(C(=O)Nc3ncc(SCc4ncc(C(C)(C)C)o4)s3)CC2)CC1 [compound 336, N-(5-(((5-(tert-butyl)oxazol-2-yl)methyl)thio)thiazol-2-yl)-1-(2-(4-(2-(2,6-dimethoxy-4-(3-oxo-3-(2-oxopiperidin-1-yl)propyl)phenoxy)ethyl)piperazin-1-yl)-2-oxoethyl)piperidine-4-carboxamide]
CDK9 degradation (CDK9 [1]; [15]): does not induce CDK9 degradation | effect of KEAP1 knockdown on cytotoxicity (H1299 lung cancer cells): no significant effect | formation of CDK9:KEAP1 ternary complex (nanoBRET) [2]: negligible | effect of KEAP1 knockdown on cytotoxicity [3]: no significant effect

CCOC(=O)c1ccc(N2NC(=O)/C(=C/c3ccc([N+](=O)[O-])o3)C2=O)cc1 [PYR-41]
effect of pre-treatment on CDK9 degradation by 955 (CDK9 [1]): blocks

NS(=O)(=O)OC[C@@H]1C[C@@H](n2ccc3c(N[C@H]4CCc5ccccc54)ncnc32)C[C@@H]1O [MLN4924]
effect of pre-treatment on CDK9 degradation by 955 (CDK9 [1]): blocks | effect of pre-treatment on CDK10 degradation induced by 955 (CDK10 [4]): blocks | effect of pre-treatment on EML4-ALK degradation induced by 819 (EML4-ALK): blocks

CC(C)C[C@@H](C=O)NC(=O)[C@H](CC(C)C)NC(=O)[C@H](CC(C)C)NC(=O)OCc1ccccc1 [MG132] (Cbz-Leu-Leu-Leu-aldehyde)
effect of pre-treatment on CDK9 degradation by 955 (CDK9 [1]): blocks | effect of pre-treatment on CDK10 degradation induced by 955 (CDK10 [4]): blocks | effect of pre-treatment on EML4-ALK degradation induced by 819 (EML4-ALK): blocks

CC(C)(C)c1cnc(CSc2cnc(NC(=O)C3CCN(CC(=O)NCCOCCOCCOCCNc4cccc5c4C(=O)N(C4CCC(=O)NC4=O)C5=O)CC3)s2)o1 (stereo not drawn) [THAL-SNS-032]
selectivity of degradation among SNS-032 targets (CDK9 [5]): could only degrade CDK9 but not other known SNS-032 targets

COC(=O)/C=C/C(=O)OC [DMF, dimethyl fumarate]
effect of pre-treatment on CDK9 degradation by 955 (CDK9 [1]): blocks | effect of pre-treatment on EML4-ALK degradation induced by 819 (EML4-ALK): blocks

COc1cc(/C=C/C(=O)N2CCC=CC2=O)cc(OC)c1OCCN1CCN(C(=O)CN2CCC(C(=O)Nc3ncc(SCc4ncc(C(C)(C)C)o4)s3)CC2)CC1 [compound 955, (E)-N-(5-(((5-(tert-butyl)oxazol-2-yl)methyl)thio)thiazol-2-yl)-1-(2-(4-(2-(2,6-dimethoxy-4-(3-oxo-3-(6-oxo-3,6-dihydropyridin-1(2H)-yl)prop-1-en-1-yl)phenoxy)ethyl)piperazin-1-yl)-2-oxoethyl)piperidine-4-carboxamide]
time to almost complete degradation of CDK9 (CDK9 [1]; 0.1 μM, time course): ≤ 8 h | CDK9 degradation (CDK9 [1]; [15]): can induce CDK9 degradation | CDK9 degradation (CDK9 [1]; short-term treatment (6 h)): potently degrade CDK9 | duration of CDK9 degradation after removal of compound from the culture (CDK9 [1]; washout): up to 18 h | CDK10 degradation (CDK10 [4]): potently degrade CDK10 | number of E3 ligases whose interaction with CDK9 is induced (V5-TurboID-CDK9; 293T cells expressing V5-TurboID-CDK9): 6 E3 ligases | KEAP1 pulled down (immunoblot of TurboID-bait assay) (V5-TurboID-CDK9; 293T cells, in the presence of biotin, with vs without compound): significantly more KEAP1 can be pulled down | CDK9 degradation (CDK9 [6]): potently degraded CDK9 | downregulation of CDK9-dependent transcription [7]: more potent than SNS-032 | effect of KEAP1 knockdown on cytotoxicity (H1299 lung cancer cells): attenuated the cytotoxicity | CDK9 degradation after ectopic expression of Halo-tagged KEAP1 (CDK9 [8]; KEAP1 stable knockout H1299 cells, 0.1 μM, 6 h): rescued CDK9 degradation | CDK9 degradation after depleting KEAP1 (CDK9 [8]; siRNA and CRISPR-Cas9 knock down/out of KEAP1, H1299 cells): blocked | formation of CDK9:KEAP1 ternary complex (nanoBRET) [2]: can induce the formation of the CDK9:955:KEAP1 ternary complex in a dose-dependent manner | CDK9 level (global proteome) (CDK9 [9]; 0.1 μM for 1 h and 6 h): significant reduction of CDK9 | effect of KEAP1 knockdown on cytotoxicity [3]: attenuated the cytotoxicity | potency relative to SNS-032 in downregulation of c-Myc and MCL-1 expression (c-Myc and MCL-1 [10]): about 10 fold | c-Myc and MCL-1 expression (c-Myc and MCL-1 [11]): downregulated c-Myc and MCL-1 | induction of PARP cleavage (MOLT4 cells): more potent in inducing PARP cleavage than SNS-032 | competition with IA-alkyne for binding to KEAP1 (purified KEAP1 protein): can compete with IA-alkyne to covalently bind to KEAP1 in a concentration-dependent manner

CC(C)[C@H](NC(=O)c1ccc2ccccc2n1)C(=O)N[C@@H](CC(=O)O)C(=O)COc1c(F)cccc1F [QVD]
effect of pre-treatment on CDK9 degradation by 955 (CDK9 [1]): does not block

CC(C)C[C@H](NC(=O)[C@H](Cc1ccccc1)NC(=O)c1cnccn1)B(O)O [bortezomib]
effect of pre-treatment on CDK9 degradation by 955 (CDK9 [1]): blocks

COC(=O)[C@]12CCC(C)(C)C[C@H]1[C@H]1C(=O)C=C3[C@@]4(C)C=C(C#N)C(=O)C(C)(C)[C@@H]4CC[C@@]3(C)[C@]1(C)CC2 [CDDO-ME]
effect of pre-treatment on CDK9 degradation by 955 (CDK9 [1]): blocks

CCN(CC)CCCC(C)Nc1ccnc2cc(Cl)ccc12 (stereo not drawn) [chloroquine]
effect of pre-treatment on CDK9 degradation by 955 (CDK9 [1]): does not block

CC(C)(C)c1cnc(CSc2cnc(NC(=O)C3CCNCC3)s2)o1 [SNS-032, N-(5-(((5-(tert-butyl)oxazol-2-yl)methyl)thio)thiazol-2-yl)piperidine-4-carboxamide]
CDK9 degradation (CDK9 [1]; [14]): none of these treatments degraded CDK9 | effect of pre-treatment on CDK9 degradation by 955 (CDK9 [1]): blocks | CDK9 degradation (CDK9 [1]; short-term treatment (6 h)): could not | EC50 (PC3; Homo sapiens, PC-3, 72 h, read-out: EC50 (antiproliferative)): > 100 nM | EC50 (22RV1; Homo sapiens, 22Rv1, 72 h, read-out: EC50 (antiproliferative)): > 100 nM | CDK10 degradation (CDK10 [4]): no effect | EC50 (DU145; Homo sapiens, DU-145, 72 h, read-out: EC50 (antiproliferative)): > 100 nM | effect of KEAP1 knockdown on cytotoxicity (H1299 lung cancer cells): no significant effect | binding to CDK10 (CDK10 [12]): moderate binding | CDK9 level (global proteome) (CDK9 [9]; 1 μM for 6 h): no significant effect | effect of KEAP1 knockdown on cytotoxicity [3]: no significant effect | IC50 (CDK9 [13]): […] | EC50 (LNCaP; Homo sapiens, 72 h, read-out: EC50 (antiproliferative)): > 100 nM

CO/C1=C\C(C)=C\[C@@H](C)[C@@H](O)[C@@H](C)C/C(C)=C/C=C/[C@H](OC)[C@@H]([C@@H](C)[C@@H](O)[C@H](C)[C@@]2(O)C[C@@H](O)[C@H](C)[C@@H](C(C)C)O2)OC1=O [Baf-A1]
effect of pre-treatment on CDK9 degradation by 955 (CDK9 [1]): does not block

CC1(C)CC[C@]2(C(=O)n3ccnc3)CC[C@]3(C)[C@H](C(=O)C=C4[C@@]5(C)C=C(C#N)C(=O)C(C)(C)[C@@H]5CC[C@]43C)[C@@H]2C1 [CDDO-IM]
effect of pre-treatment on CDK9 degradation by 955 (CDK9 [1]): blocks
